Assay results taken from patent publication US6897209B2, “Labelled factor XIIIa substrates” (GE Healthcare Limited, priority 1997, dated 2005).

Columns and labels:
human plasma clots [1] = target: T1, human plasma clots (Homo sapiens, UniProt P00488); experiment: Incorporation into human plasma clots (in vitro plasma clot assay); assay type: biochemical; conditions: for % specific uptake*: % retained with thrombin − % retained no thrombin; for % retained in plasma clot assay (with thrombin): human plasma with thrombin and calcium chloride, 60 minutes, ca. 20° C.
T1 construct: Factor XIII is transformed into its active form Factor XIIIa by thrombin in the presence of calcium ions; from tissue; host or cells: human plasma, clotted in vitro with thrombin and calcium chloride
T1 sequence (P00488 39-732): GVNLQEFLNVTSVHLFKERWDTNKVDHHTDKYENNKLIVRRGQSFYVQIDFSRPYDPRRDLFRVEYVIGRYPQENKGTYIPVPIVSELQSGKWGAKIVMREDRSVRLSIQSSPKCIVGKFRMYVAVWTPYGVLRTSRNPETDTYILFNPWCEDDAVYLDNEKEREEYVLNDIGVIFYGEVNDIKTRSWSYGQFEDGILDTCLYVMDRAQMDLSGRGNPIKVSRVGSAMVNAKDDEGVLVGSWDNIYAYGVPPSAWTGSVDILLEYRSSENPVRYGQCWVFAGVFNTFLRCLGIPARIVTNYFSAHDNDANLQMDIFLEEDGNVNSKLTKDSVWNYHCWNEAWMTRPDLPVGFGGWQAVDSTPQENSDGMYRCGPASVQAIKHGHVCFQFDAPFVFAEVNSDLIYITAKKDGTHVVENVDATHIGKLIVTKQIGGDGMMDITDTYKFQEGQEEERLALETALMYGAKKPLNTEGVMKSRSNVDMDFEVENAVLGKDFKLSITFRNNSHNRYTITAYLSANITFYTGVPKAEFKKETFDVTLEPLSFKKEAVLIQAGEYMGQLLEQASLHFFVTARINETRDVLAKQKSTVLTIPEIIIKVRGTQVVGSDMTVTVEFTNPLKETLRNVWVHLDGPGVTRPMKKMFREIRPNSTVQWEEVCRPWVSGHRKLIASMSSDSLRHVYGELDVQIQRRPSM
Description: (§1) Incorporation of radiolabelled substrates into fibrin was investigated by induction of an in vitro human plasma clot in the following manner. To a siliconised 5 ml glass vial was added, (a) 800 μl of Tris(hydroxymethyl)aminomethane buffered saline pH 7.5 containing calcium chloride (50 mM Tris, 150 mM sodium chloride, 4 mM calcium chloride.), (b) 40 μl of physiological salt solution containing 100 units of thrombin per ml, (c) 400 μl of human plasma containing the radiolabelled substrate at a concentration of typically 10 kBq/ml. To aid induction of clot a roughened glass rod was added to the reaction vial. Control vials were prepared similarly but with the omission of thrombin and calcium chloride.
(§2) The proportion of total radioactivity was calculated by counting in suitable detection apparatus.
(§3) The fraction of radioactivity retained on the filter, after subtraction of the non-specific binding determined from the control, is a measure of incorporation into the filtered clots.

human plasma clots [2] = experiment: as above; assay type: biochemical; conditions: control vials without thrombin and calcium chloride, 60 minutes
Description: as §1, §2, §3

Factor XIIIa = target: T2, Factor XIIIa (Homo sapiens, UniProt P00488); experiment: Factor XIIIa dependency of incorporation (dimethylcasein uptake, normal vs Factor XIII deficient plasma); assay type: biochemical; conditions: 1 KBq/ml, 60 minutes; uptake in normal plasma minus Factor XIII deficient plasma
T2 construct: Factor XIII is transformed into its active form Factor XIIIa by thrombin in the presence of calcium ions; from tissue; host or cells: human plasma
T2 sequence (P00488 39-732 limits assumed): T1 sequence (P00488 39-732)
Description: The assay was changed by replacing the mercaptoethanol with aprotinin at a final concentration of 2 μg/ml, and dimethylcasein (DMC) was used instead of casein.

[3] = Normal rat biodistribution; assay type: in vivo; conditions: i.v., male Wistar rats, Mean±SD n=3
Description: The resolution of a clot image is dependant on the combination of rate of incorporation of the radiopharmaceutical and its blood/tissues clearance rate. For this reason the biodistribution of several compounds has been determined in rats. Male Wistar (100-150 g) rats were injected i.v. with 0.1-0.2 ml of radiolabelled tracer solution (8 MBq/ml) and dissected at different times post-injection. The % ID in each of the selected tissues was measured. Some animals were kept in metabolism cages to be able to determine the % ID excreted in urine and faeces. The dissection times used for the majority of the agents was 2, 15, 30, 60, 240 min. Data are shown as % ID, Mean±SD, (n=3).

[4] = system: clots induced in rat inferior vena cava; experiment: Incorporation into clots induced in a rat model (rat inferior vena cava model); assay type: in vivo; conditions: rat IVC model; for Clot/Blood / Clot/Heart / Clot/Liver / Clot/Lung: 60 min; for % ID/g (clot uptake) / Relative conc (cpm/g of clot by dose/g animal): compound injected 5 min post-induction, clot removed after 60 min
Description: The rats (Male Wistar, 250-350 g) were anaesthetised with 15% urethane. After laparotomy, the vena cava was isolated and freed of surrounding fat tissue. […] The average weight of the clots formed in this model was around 27 mg, n=32, (5-50 mg range). The so compounds were injected 5 min post-induction. After 60 min the animals were sacrificed and the clot removed, weighed and counted. Other tissues e.g. blood, lung, heart, were also dissected and counted. The uptake of tracer into the clot was determined as the relative concentration (cpm/g of clot by dose/g animal ) and clot to background tissue.

## CC(=NO)C(C)(C)NCCN(CCNC(=O)C1CCC(CNC(=O)c2ccc(S(=O)(=O)NCCCCCN)cc2)CC1)CCNC(C)(C)C(C)=NO (centres unmarked) [Compound 17]
Human plasma clots [1]
  % specific uptake*: 14.7%
  % retained in plasma clot assay (with thrombin): 17%
Human plasma clots [2]
  % retained in plasma clot assay (no thrombin): 2.3%
Factor XIIIa
  % specific DMC casein uptake: 22.5%
[3]; 2 min post-injection
  % ID Blood: 18.5 ± 1.06 % ID
  % ID GI Tract: 6.31 ± 0.6 % ID
  % ID Heart: 0.34 + 0.17 % ID
  % ID Kidney: 12.3 ± 0.53 % ID
  % ID Liver: 4.3 ± 0.06 % ID
  % ID Lung: 1.69 ± 0.1 % ID
  % ID Muscle: 25.9 ± 1.8 % ID
  % ID Spleen: 0.33 ± 0.07 % ID
  % ID Urine: 1.38 ± 1.34 % ID
[3]; 15 min post-injection
  % ID Blood: 9.46 ± 0.24 % ID
  % ID GI Tract: 9.6 ± 0.9 % ID
  % ID Heart: 0.27 + 0.06 % ID
  % ID Kidney: 7.32 ± 0.76 % ID
  % ID Liver: 4.25 ± 0.85 % ID
  % ID Lung: 0.9 ± 0.16 % ID
  % ID Muscle: 15.6 ± 1.05 % ID
  % ID Spleen: 0.17 ± 0.04 % ID
  % ID Urine: 30.1 ± 1.28 % ID
[3]; 30 min post-injection
  % ID Blood: 5.7 ± 0.42 % ID
  % ID GI Tract: 13.07 ± 1.4 % ID
  % ID Heart: 0.17 + 0.04 % ID
  % ID Kidney: 7.1 ± 1.89 % ID
  % ID Liver: 2.94 ± 0.22 % ID
  % ID Lung: 0.54 ± 0.07 % ID
  % ID Muscle: 8.51 ± 0.93 % ID
  % ID Spleen: 0.11 ± 0.03 % ID
  % ID Urine: 46.9 ± 3.71 % ID
[3]; 60 min post-injection
  % ID Blood: 2.23 ± 0.15 % ID
  % ID GI Tract: 17.7 ± 3.8 % ID
  % ID Heart: 0.07 + 0.02 % ID
  % ID Kidney: 3.77 ± 0.73 % ID
  % ID Liver: 1.79 ± 0.45 % ID
  % ID Lung: 0.28 ± 0.02 % ID
  % ID Muscle: 4.31 ± 0.95 % ID
  % ID Spleen: 0.07 ± 0.02 % ID
  % ID Urine: 65.8 ± 3.4 % ID
[3]; 240 min post-injection
  % ID Blood: 0.09 ± 0.02 % ID
  % ID GI Tract: 25.4 ± 5.2 % ID
  % ID Heart: 0.01 % ID
  % ID Kidney: 5.1 ± 0.99 % ID
  % ID Liver: 1 + 0.17 % ID
  % ID Lung: 0.1 ± 0.01 % ID
  % ID Muscle: 0.81 ± 0.26 % ID
  % ID Spleen: 0.03 ± 0.02 % ID
  % ID Urine: 66.08 ± 4.98 % ID
[4]
  Clot/Blood: 1.15
  Clot/Heart: 2.7
  Clot/Liver: 1.26
  Clot/Lung: 1.54
  % ID/g (clot uptake): 0.32 ± 0.04 % ID/g
  Relative conc (cpm/g of clot by dose/g animal): 1.1 ± 0.17

## CC(=NO)C(C)(C)NCCN(CCNC(=O)c1ccc(S(=O)(=O)NCCCCCN)cc1)CCNC(C)(C)C(C)=NO [Compound 16, 3,3,11,11-tetramethyl-7-(4-N-(5-aminopentyl)-amidosulphonyl)benzamidoethyl-4,7,10-triazatridecane-2,12-dione dioxime]
Human plasma clots [1]
  % specific uptake*: 1.2%
  % retained in plasma clot assay (with thrombin): 2%
Human plasma clots [2]
  % retained in plasma clot assay (no thrombin): 0.8%
Factor XIIIa
  % specific DMC casein uptake: 1%
[3]; 2 min post-injection
  % ID Blood: 17.8 ± 1.78 % ID
  % ID GI Tract: 6.61 ± 0.43 % ID
  % ID Heart: 0.44 ± 0.09 % ID
  % ID Kidney: 10.55 ± 1.1 % ID
  % ID Liver: 5.61 ± 0.23 % ID
  % ID Lung: 1.53 ± 0.12 % ID
  % ID Muscle: 32.9 ± 0.97 % ID
  % ID Urine: 1.74 ± 1.05 % ID
[3]; 30 min post-injection
  % ID Blood: 2.20 ± 0.5 % ID
  % ID GI Tract: 27.3 ± 3.45 % ID
  % ID Heart: 0.06 ± 0.01 % ID
  % ID Kidney: 3.47 ± 0.71 % ID
  % ID Liver: 5.15 ± 0.75 % ID
  % ID Lung: 0.31 ± 0.08 % ID
  % ID Muscle: 4.63 ± 0.25 % ID
  % ID Urine: 48.0 ± 2.22 % ID
[3]; 60 min post-injection
  % ID Blood: 0.38 ± 0.14 % ID
  % ID GI Tract: 31.6 ± 6.4 % ID
  % ID Heart: 0.01 ± 0.01 % ID
  % ID Kidney: 1.80 ± 0.65 % ID
  % ID Liver: 3.07 ± 0.47 % ID
  % ID Lung: 0.09 ± 0.03 % ID
  % ID Muscle: 1.51 ± 0.53 % ID
  % ID Urine: 58.2 ± 8.87 % ID
[3]; 240 min post-injection
  % ID Blood: 0.04 ± 0.04 % ID
  % ID GI Tract: 36.5 ± 1.5 % ID
  % ID Heart: 0.00 % ID
  % ID Kidney: 1.06 ± 0.06 % ID
  % ID Liver: 2.01 ± 0.11 % ID
  % ID Lung: 0.04 ± 0.00 % ID
  % ID Muscle: 0.55 ± 0.08 % ID
  % ID Urine: 58.9 ± 1.66 % ID
[4]
  Clot/Blood: 1.7
  Clot/Heart: 3.8
  Clot/Liver: 0.37
  Clot/Lung: 2.1
  % ID/g (clot uptake): 0.27 ± 0.06 % ID/g
  Relative conc (cpm/g of clot by dose/g animal): 0.93 ± 0.16

## CC(=NO)C(C)(C)NCC(C)(CNC(=O)c1ccc(S(=O)(=O)NCCCCCN)cc1)CNC(C)(C)C(C)=NO (centres unmarked) [Compound 3, 3,3,6,9,9-pentamethyl-6-(4-(N-(5-aminopentyl)amidosulphonyl)benzamidomethyl)-4,8-diazaundecane-2,10-dione dioxime]
Human plasma clots [1]
  % specific uptake*: 19%
  % retained in plasma clot assay (with thrombin): 22%
Human plasma clots [2]
  % retained in plasma clot assay (no thrombin): 3.0%
Factor XIIIa
  % specific DMC casein uptake: 40%
[3]; 2 min post-injection
  % ID Blood: 19.29 ± 1.7 % ID
  % ID GI Tract: 10.1 ± 1.2 % ID
  % ID Heart: 0.51 + 0.08 % ID
  % ID Kidney: 5.55 + 1 % ID
  % ID Liver: 19.34 ± 0.8 % ID
  % ID Lung: 1.43 ± 0.16 % ID
  % ID Muscle: 23.6 ± 0.9 % ID
  % ID Urine: 0.06 ± 0.02 % ID
[3]; 15 min post-injection
  % ID Blood: 1.45 ± 0.38 % ID
  % ID GI Tract: 70 + 3.4 % ID
  % ID Kidney: 2.1 ± 0.8 % ID
  % ID Liver: 7.79 ± 1.16 % ID
  % ID Lung: 0.23 ± 0.12 % ID
  % ID Muscle: 4.87 ± 0.6 % ID
  % ID Urine: 5.01 ± 2.53 % ID
[3]; 30 min post-injection
  % ID Blood: 0.59 ± 0.07 % ID
  % ID GI Tract: 76.5 ± 5.6 % ID
  % ID Kidney: 2.09 ± 1.87 % ID
  % ID Liver: 1.95 ± 0.35 % ID
  % ID Lung: 0.03 + 0.04 % ID
  % ID Muscle: 1.53 ± 0.71 % ID
  % ID Urine: 14.42 ± 3.78 % ID
[3]; 60 min post-injection
  % ID Blood: 0.31 ± 0.02 % ID
  % ID GI Tract: 79.9 ± 2.9 % ID
  % ID Kidney: 0.57 ± 0.12 % ID
  % ID Liver: 1.54 ± 0.29 % ID
  % ID Lung: 0.07 ± 0.02 % ID
  % ID Muscle: 1.14 ± 0.48 % ID
  % ID Urine: 14.66 ± 2.83 % ID
[3]; 240 min post-injection
  % ID Blood: 0.11 ± 0.07 % ID
  % ID GI Tract: 83.5 ± 2.2 % ID
  % ID Kidney: 0.45 ± 0.04 % ID
  % ID Liver: 1.35 ± 0.06 % ID
  % ID Lung: 0.14 + 0.24 % ID
  % ID Muscle: 0.8 ± 0.17 % ID
  % ID Urine: 12.31 ± 1.93 % ID
[4]
  Clot/Blood: 2
  Clot/Heart: 3.4
  Clot/Liver: 0.23
  Clot/Lung: 2.2
  % ID/g (clot uptake): 0.10 ± 0.02 % ID/g
  Relative conc (cpm/g of clot by dose/g animal): 0.37 ± 0.1
